Laboratory results taken from article PMC8887546, “Design and Synthesis of Brain Penetrant Glycopeptide Analogues of PACAP With Neuroprotective Potential for Traumatic Brain Injury and Parkinsonism” (Frontiers in drug discovery, 2022).

What was measured:
[1] = tested on: Sprague Dawley rats, 6-OHDA lesion; assay: Amphetamine-induced rotations, moderate 6-OHDA hemi-parkinsonian rat model (study 2); format: in vivo; conditions: more severe (40%) lesion, three injections 15 mg/kg i.p., vs vehicle
Protocol: (§1) Rats were treated with 2LS98Lac or saline (vehicle) as outlined in the Schemes in Figures 9A,B via intraperitoneal (i.p.) injection (15 mg/kg). All animals were made hemi-parkinsonian with unilateral, striatal 6-hydroxydopamine (Sigma Aldrich, St. Louis, MO) injections. After surgery, behavioral assessments were done at 2- and 4-weeks post-surgery. 24 h after the last test animals were either euthanized and whole brains were harvested for future biochemical analysis or perfused and brains collected for immunohistochemistry and stereological assessment of tyrosine hydroxylase-positive (TH+) cells remaining in the SNc. In study 1: n = 16 each group were included, and all underwent the behavioral analysis: n = 16, and for the stereology in the SNc, n = 8 each group was used. […]
(§2) In order to pharmacologically assess the degree of dopaminergic (DA) depletion in the lesioned side, animals were given amphetamine, an indirectly acting DA agonist and placed into a plexiglass cylinder (38 cm tall × 38 cm across) enclosed in an open field box ([Yue et al., 2011]). Dextro-amphetamine in sterile 0.9% saline (Sigma-Aldrich) was injected i.p. at 5 mg/kg, and rotations were recorded from above using Logitech HD web cameras connected to an Acer Aspire SWS-015 computer. An observer blinded to the groups counted rotations in both the ipsilateral and contralateral rotations for the entire 70 min period. […]

[2] = tested on: Sprague Dawley rats, 6-OHDA lesion; assay: Amphetamine-induced rotations, mild 6-OHDA hemi-parkinsonian rat model (study 1); format: in vivo; conditions: mild lesion (25%), 15 mg/kg i.p. 6 h prior to and 24 h post-lesion, 2 + 4 weeks, vs vehicle
Protocol: as §1, §2

human VPAC1 receptor = molecular target: T1, human VPAC1 receptor (Homo sapiens, UniProt P32241); assay: cAMP stimulation in CHO cells expressing VPAC1; format: cell-based
T1 construct: expressed in transfected cells; host or cells: CHO cells (G418 selection)
T1 sequence (P32241 31-457): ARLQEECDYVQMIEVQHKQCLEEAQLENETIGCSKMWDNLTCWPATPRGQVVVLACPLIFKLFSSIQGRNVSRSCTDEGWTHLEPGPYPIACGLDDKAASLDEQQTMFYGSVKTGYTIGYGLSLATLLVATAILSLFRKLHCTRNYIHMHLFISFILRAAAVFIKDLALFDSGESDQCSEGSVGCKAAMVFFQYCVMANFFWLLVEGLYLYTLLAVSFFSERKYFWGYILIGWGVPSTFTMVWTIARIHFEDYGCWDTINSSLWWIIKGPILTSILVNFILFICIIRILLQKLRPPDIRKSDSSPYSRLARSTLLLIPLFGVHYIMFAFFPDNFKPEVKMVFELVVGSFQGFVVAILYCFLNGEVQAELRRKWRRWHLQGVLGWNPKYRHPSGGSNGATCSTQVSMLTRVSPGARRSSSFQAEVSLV

`[2H]C([2H])([2H])C([2H])(C([2H])([2H])[2H])[C@]([2H])(NC(=O)[C@H](C)NC(=O)[C@H](C)NC(=O)[C@H](CC(C)C)NC(=O)[C@H](Cc1ccc(O)cc1)NC(=O)[C@H](CCCCN)NC(=O)[C@H](CCCCN)NC(=O)[C@@]([2H])(NC(=O)[C@H](C)NC(=O)[C@H](CC(C)C)NC(=O)[C@H](CCC(N)=O)NC(=O)[C@H](CCCCN)NC(=O)[C@H](CCCNC(=N)N)NC(=O)[C@H](Cc1ccc(O)cc1)NC(=O)[C@H](CCCNC(=N)N)NC(=O)[C@H](CO)NC(=O)[C@H](Cc1ccc(O)cc1)NC(=O)[C@H](CO)NC(=O)[C@H](CC(=O)O)NC(=O)[C@@H](NC(=O)[C@H](Cc1ccccc1)NC(=O)[C@@H](NC(=O)CNC(=O)[C@H](CC(=O)O)NC(=O)[C@H](CO)NC(=O)[C@@H](N)Cc1c[nH]cn1)[C@@H](C)CC)[C@@H](C)O)C([2H])(C([2H])([2H])[2H])C([2H])([2H])[2H])C(=O)N[C@@H](CC(C)C)C(=O)N[C@@H](CO[C@@H]1O[C@H](CO)[C@@H](O[C@@H]2O[C@H](CO)[C@H](O)[C@H](O)[C@H]2O)[C@H](O)[C@H]1O)C(N)=O` [Compound 2LS98Lac] was tested, and the “Amphetamine-induced rotations at 2 weeks post-lesion” value [1] was “did not see a difference”, the “Amphetamine-induced rotations at 4 weeks post-lesion” value [1] was “did not see a difference” and the “Cumulative contralateral amphetamine-induced rotations” value [2] was “significantly decreased”. The Emax (human VPAC1 receptor; CHO, read-out: VPAC1 Emax) was 101%, the “Receptor selectivity ratio VPAC1/PAC1” value (human VPAC1 receptor; ratio of cAMP EC50 values) was 0.63 and the EC50 (human VPAC1 receptor; read-out: VPAC1 EC50) was 450 pM.
